Reference: patent publication US7452865B2, “Antagonistic analogs of GH RH (2003)” (The Administrare's of the Tulane Educational Fund, priority 2004, dated 2008)
Marks after values point to notes of the source that are not given here. Square brackets hold non-standard residues; d marks the D form. Peptide text beside a SMILES is read from it. * marks the point of attachment. Phe(4-Cl) = N[C@@H](Cc1ccc(Cl)cc1)C(=O)O; hArg = N=C(N)NCCCC[C@H](N)C(=O)O; Nle = CCCC[C@H](N)C(=O)O; Abu = CC[C@H](N)C(=O)O; PhAc = O=C(Cc1ccccc1)*

Assays:
[1] = system: GH-RH receptor isoforms on membrane fractions of human PC-3 prostate tumors; type: binding; settings: general statement
In short: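 Competitive displacement of [^125I]JV-1-42 from crude membranes of human PC-3 prostate tumours grown as nude-mouse xenografts, with unlabelled peptides at 10^−12 to 10^−6 M. Bound radioactivity in the centrifuged pellet gamma-counted; Ki from Munson–Rodbard analysis. Relative affinity = Ki of reference peptide (JV-1-36 or JV-1-38) / Ki of test antagonist.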

[2] = system: H-69 human SCLC xenografts; assay: H-69 human SCLC xenografts in nude mice: tumor growth; type: in vivo
Experimental: Male nude mice were implanted s.c. with 3 mm^3 pieces of H-69 human SCLC tissue. When tumors reached a volume of approx. 80 mm^3 the mice were divided into 4 experimental groups of 7-8 animals each and received the following treatment for 4 weeks: group I (control), vehicle solution; group 2, Peptide 67 (10 μg/day s.c.); group 3, Peptide 31 (10 μg/day s.c.); group 4, Peptide 72 (10 μg/day s.c.). Tumor volumes were recorded twice a week. At the end of treatment, mice were anesthetized with isoflurane, killed by decapitation, and tumors were excised and weighed. Data are presented as means±S.E. Data were evaluated by one way ANOVA and the Student-Newman-Keuls test.

[3] = system: PC-3 human prostate cancer xenografts; assay: PC-3 xenografts in nude mice, Experiment 2: tumor growth; type: in vivo; settings: for Tumor volume (mm^3) Initial: 5 μg/day groups, at start of treatment; for Tumor volume (mm^3) Final / Tumor volume doubling time / Tumor weight / Tumor volume Final (% inhibition) / Tumor weight (% inhibition): 5 μg/day s.c., 28 days; for Tumor volume Final (% inhibition) / Tumor weight (% inhibition): vs control
Experimental: (§1) Male nude mice were implanted s.c. with 3 mm^3 pieces of PC-3 human hormone-independent prostate cancer tissue on both flanks. When tumors reached a volume of approx. 50 mm^3, the mice were divided into 5 experimental groups with 7 to 8 animals in each group and received single daily injections for 28 days as follows: 1. Control (vehicle solution); 2. JV-1-38 (10 μg/day s.c.); 3 Peptide 31 (10 μg/day s.c.); 4. Peptide 67 (10 μg/day s.c.); 5. Peptide 62 (10 μg/day s.c.). Tumor volumes were measured twice a week. The experiment was ended on day 29 by sacrificing the mice under Isoflurane anesthesia. Resulting tumors were cleaned, weighed, and snap-frozen until further analyses. Trunk blood was collected from the abdominal aorta and serum was separated for RIA measurement of IGF-I. Statistical analyses of the measurement results were done by two-tailed t-test; data are presented as the means±S.E.
(§2) Experiment 2 was similar to Experiment 1, with the difference that Experiment 2 was started when PC-3 tumors had grown to approximately 30 mm^3 in volume. At this time, the animals were divided into 8 experimental groups with 8 animals in each group, and received single daily injections for 28 days as follows. 1. Control (vehicle solution); 2. JV-1-38 (10 μg/day s.c.); 3. Peptide 46 (5 μg/day: s.c.); 4. Peptide 77 (5 μg/day s.c); 5. Peptide 76 (5 μg/day s.c.); 6. Peptide 70 (5 μg/day s.c.); 7 Peptide 79 (5 μg/day s.c.); 8. Peptide 80 (5 μg/day s.c.). Further details of Experiment 2 are the same as for Experiment 1.

IGF-I [4] = assay: PC-3 xenografts, Experiment 2: serum IGF-I (RIA); type: in vivo, nude mice; settings: 5 μg/day s.c., 28 days; for Serum IGF-I (% inhibition): vs control
Excerpt: (§3) For the measurement of GH and IGF-I levels in the serum, as well as IGF-I and IGF-II concentrations in the cytosol fraction of tumors, blood samples and tumor samples were collected and processed as described (Braczkowski R, Schally A V, Plonowski A, Varga J L, Groot K, Krupa M, Armatis P, Cancer 95: 1735-1745, 2002), hereby incorporated by reference. Briefly, blood samples are centrifuged to separate the serum, tumors are homogenized and centrifuged to separate the cytosol fraction. Serum GH is then measured by the double-antibody RIA method. Before measurement by RIA, IGF-I and IGF-II are extracted from serum and cytosol fractions using an acid-ethanol cryoprecipitation method that eliminates most of the IGF binding proteins, which can interfere with the RIA. IGF-I concentration is measured by RIA using IGF-I as a standard and goat anti-IGF-I antibody (both from DSL Inc., Webster, Tex.). IGF-II concentration is measured by RIA using human recombinant IGF-II (Bachem) as a standard and anti-IGF-II monoclonal antibody (Amano International Enzyme, Troy, Va.).
as §1, §2

[5] = system: hGH-RH(1-29)NH2 induced GH release; assay: Inhibition of GH release in superfused rat pituitary system; type: cell-based; settings: for GH response (% of control) 0 min / GH response (% of control) 30 min / GH response (% of control) 60 min / GH response (% of control) 90 min / GH response (% of control) 120 min: antagonist 30 nM; for GH response (% of control) 0 min: 1 nM hGH-RH(1-29)NH2 at 0 min; for GH response (% of control) 30 min: 1 nM hGH-RH(1-29)NH2 at 30 min; for GH response (% of control) 60 min: 1 nM hGH-RH(1-29)NH2 at 60 min; for GH response (% of control) 90 min: 1 nM hGH-RH(1-29)NH2 at 90 min; for GH response (% of control) 120 min: 1 nM hGH-RH(1-29)NH2 at 120 min
In short: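 Dispersed rat pituitary cells in superfusion were preincubated 9 min with analog at various concentrations, then stimulated with 1 nM hGH-RH(1-29)NH2 for 3 min, repeated at 30, 60, 90, 120 min to gauge duration. GH measured by double-antibody RIA; net integrated responses expressed as percent of the initial 1 nM GH-RH response.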

[6] = system: PC-3 human prostate cancer xenografts; assay: PC-3 xenografts in nude mice, Experiment 1: tumor growth; type: in vivo
Experimental: as §1

IGF-I [7] = assay: PC-3 xenografts, Experiment 1: serum IGF-I (RIA); type: in vivo, nude mice; settings: 10 μg/day s.c., 28 days
Excerpt: as §3, §1

[8] = 10 μg/day s.c., 28 days, vs control

Compound	binding affinities to the tumoral receptors for GH-RH (in words) [1]	Tumor volume (mm^3) Initial [3]	Tumor volume (mm^3) Final [3]	Tumor volume doubling time [3]	Tumor weight [3]	Tumor volume Final (% inhibition) [3]	Tumor weight (% inhibition) [3]	Serum IGF-I (IGF-I [4])	Serum IGF-I (% inhibition) (IGF-I [4])	also measured
[HOOC(CH2)12CO-Tyr^1, D-Arg^2, Phe(pCl)^6, Amp^9, Tyr(Me)^10, Abu^15, Nle^27, D-Arg^28, Har^29]hGH-RH(1-29)NH2 [Peptide 72]	extremely high binding affinities									antiproliferative effect on H-69 tumors (in words) ([2]; 10 μg/day, single daily injections): strongest antiproliferative effect; Tumor volume (mm^3) Final ([2]; H-69, 10 μg/day s.c., 4 weeks): 308 ± 23* mm^3; Tumor volume Final (% inhibition) ([2]; H-69, 10 μg/day s.c., 4 weeks, vs control): (90%); Tumor volume (mm^3) Initial ([2]; H-69, at start of treatment): 81 ± 9 mm^3
[CH3(CH2)6CO-Tyr^1, D-Arg^2, Phe(pCl)^6, Cit^8, Amp^9, Tyr(Me)^10, His^11, Abu^15, Nle^27, D-Arg^28, Har^29]hGH-RH(1-29)NH2 [Peptide 76]	extremely high binding affinities	26.8 ± 3.4 mm^3	232 ± 30.8 mm^3	9.4 ± 0.6 days	226 ± 48.3 mg	(34%)	(20%)	260 ± 29.7 ng/mL	1%	
[CH3(CH2)6CO-Tyr^1, D-Arg^2, Phe(pCl)^6, Amp^9, Tyr(Me)^10, Abu^15, Nle^27, D-Arg^28, Har^29]hGH-RH(1-29)NH2 [Peptide 70]	extremely high binding affinities	26.5 ± 3.7 mm^3	199 ± 40.4*# mm^3	12.6 ± 2.5 days	119 ± 25.3 mg	(43%)	(58%)	175 ± 12.9 ng/mL	33%	
[HOOC(CH2)12CO-Tyr^1, D-Arg^2, Phe(pCl)^6, Cit^8, Amp^9, Tyr(Me)^10, His^11, Abu^15, Nle^27, D-Arg^28, Har^29]hGH-RH(1-29)NH2 [Peptide 77]	extremely high binding affinities	27.2 ± 3.2 mm^3	192 ± 44.1 mm^3	10.7 ± 0.8 days	138 ± 34.3 mg	(45%)	(51%)	276 ± 16.8 ng/mL	0%	
CCCC[C@H](NC(=O)[C@@H](NC(=O)[C@H](CC(=O)O)NC(=O)[C@H](CCC(N)=O)NC(=O)[C@H](CC(C)C)NC(=O)[C@H](CC(C)C)NC(=O)[C@H](CCCCN)NC(=O)[C@H](CCCNC(=N)N)NC(=O)[C@H](C)NC(=O)[C@H](CO)NC(=O)[C@H](CC(C)C)NC(=O)[C@H](CCC(N)=O)NC(=O)[C@H](CC)NC(=O)[C@H](CC(C)C)NC(=O)[C@@H](NC(=O)[C@H](CCCCN)NC(=O)[C@H](Cc1c[nH]cn1)NC(=O)[C@H](Cc1ccc(OC)cc1)NC(=O)[C@H](CCCCNC(=N)N)NC(=O)[C@H](CC(N)=O)NC(=O)[C@@H](NC(=O)[C@H](Cc1ccc(Cl)cc1)NC(=O)[C@@H](NC(=O)[C@H](C)NC(=O)[C@H](CC(=O)O)NC(=O)[C@@H](CCCNC(=N)N)NC(=O)[C@H](Cc1ccc(O)cc1)NC(=O)Cc1ccccc1)[C@@H](C)CC)[C@@H](C)O)C(C)C)[C@@H](C)CC)C(=O)N[C@H](CCCNC(=N)N)C(=O)N[C@@H](CCCCNC(=N)N)C(N)=O [Peptide 62, [PhAc-Tyr^1, D-Arg^2, Phe(pCl)^6, Har^9, Tyr(Me)^10, His^11, Abu^15, Nle^27, D-Arg^28, Har^29]hGH-RH(1-29)NH2] (PhAc-Y[dR]DAI[Phe(4-Cl)]TN[hArg]Y(Me)HKVL[Abu]QLSARKLLQDI[Nle][dR][hArg]-NH2)	extremely high binding affinities									GH response (% of control) 0 min [5]: 20 % of control; GH response (% of control) 30 min [5]: 16 % of control; GH response (% of control) 60 min [5]: 14 % of control; GH response (% of control) 90 min [5]: 21 % of control; GH response (% of control) 120 min [5]: 21 % of control; endocrine antagonistic potency: inhibition of the GH release stimulated by hGH-RH(1-29)NH2 (in words) ([5]; general statement, in vitro and in vivo): high endocrine antagonistic potencies; Tumor volume (mm^3) Final ([6]; 10 μg/day s.c., 28 days): 215 ± 50.4 mm^3; Tumor volume doubling time ([6]; 10 μg/day s.c., 28 days): 18.4 ± 4.96 days; Tumor volume Final (% inhibition) [6, 8]: (57%); Tumor weight (% inhibition) [6, 8]: (47%); inhibitory effect on the growth of PC-3 tumors (in words) ([6]; 10 μg/day s.c., compared with JV-1-38): stronger inhibitory effect on the growth of PC-3 tumors than the reference peptide JV-1-38; Tumor volume (mm^3) Initial ([6]; at start of treatment): 56.1 ± 18.2 mm^3; Serum IGF-I (IGF-I [7]): 141 ± 8.86 ng/mL; Serum IGF-I (% inhibition) (IGF-I [7]; vs control): (5%)
[PhAc-Tyr^1, D-Arg^2, Phe(pCl)^6, Har^9, Tyr(Me)^10, Abu^15, Nle^27, D-Arg^28, Har^29]hGH-RH(1-29)NHEt [Peptide 46]		26.6 ± 2.7 mm^3	246 ± 93.7 mm^3	11.2 ± 1.3 days	188 ± 66.1 mg	(30%)	(34%)	288 ± 17.9 ng/mL	0%	GH response (% of control) 0 min [5]: 91 % of control; GH response (% of control) 30 min [5]: 28 % of control; GH response (% of control) 60 min [5]: 31 % of control; GH response (% of control) 90 min [5]: 56 % of control; GH response (% of control) 120 min [5]: 30 % of control
[CH3(CH2)6CO-Tyr^1, D-Arg^2, Phe(pCl)^6, Cit^8, His^9, Tyr(Et)^10, His^11, Abu^15, Nle^27, D-Arg^28, Har^29]hGH-RH(1-29)NH2 [Peptide 79]	extremely high binding affinities	29.1 ± 4.3 mm^3	139 ± 49.4*# mm^3	13.6 ± 1.8 days	153 ± 54.5 mg	(60%)	(46%)	181 ± 19.8 ng/mL	31%	
